Experimental data reported in patent US5962525A, “6,7-disubstituted-2-aminotetralines active as immunomodulators and pharmaceutical compositions containing same” (Sigma-Tau, priority 1990, dated 1999).

Legend:
LD50, intravenous = details: mouse, in vivo, 0.9% saline
Description: LD50 was determined according to Carrol S. Weil's method, Biometrics, pages 249-263 (1952) in male Swiss albino mice weighing 22-24 g.
The various compounds dissolved in 0.9% saline were administered intravenously.

[1] = tested on: peritoneal macrophages of treated mice; target tumor cells; experiment: "In vitro-ex vivo" effect on the cytostatic activity of peritoneal macrophages; parameters: species or system mouse (B6 D2 F1); tumor targets human
Description: Assessment of the "in vitro-ex vivo" effect of ST 557, ST 563 and ST 570 on the cytostatic activity of peritoneal macrophages
Male B6 D2 F1 mice aged 7-9 weeks (5 animals per group) were used.
The compounds were administered i.p. (25 mg/kg/day), ST 557 and ST 563 were also administered per os (100 mg/kg/day) from day -5 to day -1 (peritoneal cell harvesting at day 0).
The macrophages and target tumor cell lines were prepared as in test 1 and their concentrations were adjusted to 1×10^6 M/ml and 5×10^4 cell/ml, respectively.
Volumes of tumor cells were added to the macrophage preparations so as to obtain Effector/Target ratios of 10:1, 20:1 and 40:1.
Each sample was pulsed with ^3 H-TdR for 18 hours in order to label the tumor cells, which were then collected on filters and counted in a beta-counter.
The macrophage cytostatic activity is expressed as percentage inhibition of tumor cell replication, by assessing the radioactivity incorporated by the tumor cells in each sample with respect to the maximum radioactivity incorporated by a sample consisting of tumor cells only. [formula]

[2] = tested on: murine peritoneal macrophages; tumor targets Daudi and CEM-CM3; experiment: "In vitro-ex vivo" effect on the cytotoxic activity of peritoneal macrophages (lysis of 3H-TdR labelled tumor cells); parameters: species or system mouse (B6 D2 F1, C57B16); tumor targets human
Description: Assessment of the "in vitro-ex vivo" effect of ST 557, ST 563, ST 570 and ST 626 on the cytotoxic activity of peritoneal macrophages (M)
Male hybrid B6 D2 F1 aged 7-9 weeks and male inbred mice C57B16 aged 8 weeks were used (4 animals/group).
All the compounds were administered i.p. (25 mg/kg/day). ST 557 was also administered per os (100 mg/kg/day) from day -5 to day -1 (peritoneal exudate cell [PEC] harvesting at day 0).
PEC were obtained from sacrificed animals, 24 hours following the end of treatment, via repeated washings of the abdominal cavity. The peritoneal exudates obtained from each group of animals were pooled.
The macrophage percentage was assessed by counting in a Burker chamber; cell suspensions (concentration=2×10^6 M/ml) were prepared.
The macrophage cytotoxic activity was assessed using the following two tumor cell lines as targets: Daudi, derived from a human lymphoblastoma and CEM-CM3, derived from human lymphoblastic leukemia (both lines are disclosed in ATCC--American Type Culture Collection--Cell lines of hybridoma, 5th Ed.--1985).
The experimental procedure is substantially the same as that described by Herscowitz, H. B. (1981)--Manual of Macrophage Methodology. Dekker M, Editor.
In particular, samples of cell lines were labelled with ^3 H-TdR (tritiated thymidine) and their concentration was adjusted to 5×10^4 cells/ml. They were then added to the macrophage preparations (using 96-well microtiter plates) and the volumes were adjusted so as to obtain Effector (macrophage)/Target (tumor cell) ratios of 20:1; 40:1 and 80:1 in an overall volume of 0.3 ml/well.
Three replicates for each sample were prepared; after 48 and 72 hours of incubation at 37° C. in 5% CO2. Aliquots of 0.1 ml of supernatant were drawn out from each well and counted in a β-counter.
The macrophage cytotoxic activity results in a tumor cell lysis that causes the release of the radioactivity incorporated by the cells into the supernatant.
Based on the βeta-counter data (in cpm) this activity is expressed as the percentage of radioactivity released following lysis with respect to the radioactivity incorporated by the tumor cells.
The relevant formulas are as follows: [formula]
The measures carried out on the samples account for a certain degree of lysis occurring spontaneously in cultured tumor cells not exposed to macrophages. Total radioactivity incorporated by the tumor cells is calculated by conducting a lysis with 1% SDS in distilled water.

[3] = tested on: murine peritoneal exudate cells (PEC); experiment: "In vitro-ex vivo" effect on the phagocytic activity of exudate peritoneal cells (SRBC phagocytosis); parameters: species or system mouse (B6 D2 F1); details: for SRBC per phagocytizing cell: average number of SRBC in each phagocyte
Description: Assessment of the "in vitro-ex vivo" effect of ST 557, ST 563, ST 564, ST 570, ST 608 and ST 626 on the phagocytic activity of exudate peritoneal cells (PEC)
Male B6 D2 F1 mice aged 6-8 weeks (5 animals each group) were used.
The compounds were administered i.p. (25 mg/kg/day), ST 557, ST 563 and ST 626 were also administered per os (100 mg/kg/day) from day -5 to day -1 (PEC harvesting at day 0).
The experimental procedure was substantially the same as that described by Williams et al., in "Methods in Immunology and Immunochemistry", Acad. Press. 5: 261 (1976).
In particular, 24 hours following the end of the treatment, PECs from each experimental group were harvested, pooled and their concentration was adjusted to 4×10^6 cells/ml.
To volumes of 250 μl of each PEC sample were added equal volumes of 0.4% SRBC (Sheep Red Blood Cells) opsonized with hyperimmune serum.
The samples (duplicate) were incubated for 1 hour and then subjected to hypotonic shock in order to remove the non-phagocytized SRBC. After restoring the osmolarity, the phagocytes were cytocentrifuged, stained with a differential dye and observed under the microscope.
The results were expressed as:
(a) percentage of cells that have phagocytized with respect to 100 phagocytizing cells;
(b) total number of phagocytized SRBC;
(c) average number of SRBC in each phagocyte.

[4] = 48 hours, E/T 20:1, 25 mg/kg/day i.p., B6 D2 F1
[5] = 48 hours, E/T 20:1, 25 mg/kg/day i.p., repeated experiment, B6 D2 F1
[6] = 48 hours, E/T 40:1, 25 mg/kg/day i.p., B6 D2 F1
[7] = 48 hours, E/T 40:1, 25 mg/kg/day i.p., repeated experiment, B6 D2 F1
[8] = 48 hours, E/T 80:1, 25 mg/kg/day i.p., repeated experiment, B6 D2 F1
[9] = 72 hours, E/T 20:1, 25 mg/kg/day i.p., B6 D2 F1
[10] = 72 hours, E/T 20:1, 25 mg/kg/day i.p., repeated experiment, B6 D2 F1
[11] = 72 hours, E/T 40:1, 25 mg/kg/day i.p., B6 D2 F1
[12] = 72 hours, E/T 40:1, 25 mg/kg/day i.p., repeated experiment, B6 D2 F1
[13] = 72 hours, E/T 80:1, 25 mg/kg/day i.p., repeated experiment, B6 D2 F1

Structure (SMILES) | % of inhibition of target tumor growth ([1]; E/T 10:1, 100 mg/kg/day os) | % of inhibition of target tumor growth ([1]; E/T 20:1, 25 mg/kg/day i.p.) | % of inhibition of target tumor growth ([1]; E/T 20:1, 100 mg/kg/day os) | % of inhibition of target tumor growth ([1]; E/T 40:1, 25 mg/kg/day i.p.) | % of inhibition of target tumor growth ([1]; E/T 40:1, 100 mg/kg/day os) | % lysis of tumor target [2, 4] | % lysis of tumor target [2, 5] | % lysis of tumor target [2, 6] | % lysis of tumor target [2, 7] | % lysis of tumor target [2, 8] | % lysis of tumor target [2, 9] | % lysis of tumor target [2, 10] | % lysis of tumor target [2, 11] | % lysis of tumor target [2, 12] | % lysis of tumor target [2, 13] | Fagocytizing cells ([3]; 25 mg/kg/day i.p.) | Total n° SRBC phagocytized ([3]; 25 mg/kg/day i.p.) | SRBC per phagocytizing cell ([3]; 25 mg/kg/day i.p.) | Fagocytizing cells ([3]; 100 mg/kg/day os) | Total n° SRBC phagocytized ([3]; 100 mg/kg/day os) | other results
COc1cc2c(cc1OC)CC(N(CC1CC1)CC1CC1)CC2 (stereo not shown) [ST 557, 2-[(N,N-dicyclopropylmethyl)amino]-6,7-dimethoxytetraline] | 24.3 ± 2.2% | 45.1 ± 1.1% | 38.7 ± 1.6% | 68.9 ± 1.4% | 62.8 ± 3.1% | 10.7 ± 0.2% | 7.8 ± 0.7% | 24.6 ± 0.8% | 13.2 ± 0.7% | 32.4 ± 0.9% | 13.1 ± 0.3% | 13.0 ± 0.7% | 29.3 ± 0.9% | 18.7 ± 0.9% | 45.3 ± 0.9% | 29.6% | 93.6 | 3.20 | 59.0% | 190.5 | LD50 (LD50, intravenous): 28.3 mg/kg; % lysis of tumor target ([2]; 48 hours, E/T 20:1, 25 mg/kg/day i.p., repeated experiment, C57B16 mice): 10.8 ± 0.6%; % lysis of tumor target ([2]; 48 hours, E/T 20:1, 100 mg/kg/day os, B6 D2 F1): 22.7 ± 0.6%; % lysis of tumor target ([2]; 48 hours, E/T 40:1, 25 mg/kg/day i.p., repeated experiment, C57B16 mice): 16.4 ± 0.8%; % lysis of tumor target ([2]; 48 hours, E/T 40:1, 100 mg/kg/day os, B6 D2 F1): 30.1 ± 0.7%; % lysis of tumor target ([2]; 48 hours, E/T 80:1, 25 mg/kg/day i.p., repeated experiment, C57B16 mice): 28.3 ± 0.5%; % lysis of tumor target ([2]; 48 hours, E/T 80:1, 100 mg/kg/day os, B6 D2 F1): 29.7 ± 0.9%; % lysis of tumor target ([2]; 72 hours, E/T 20:1, 25 mg/kg/day i.p., repeated experiment, C57B16 mice): 11.9 ± 0.7%; % lysis of tumor target ([2]; 72 hours, E/T 20:1, 100 mg/kg/day os, B6 D2 F1): 29.7 ± 1.2%; % lysis of tumor target ([2]; 72 hours, E/T 40:1, 25 mg/kg/day i.p., repeated experiment, C57B16 mice): 11.9 ± 0.4%; % lysis of tumor target ([2]; 72 hours, E/T 40:1, 100 mg/kg/day os, B6 D2 F1): 41.5 ± 1.3%; % lysis of tumor target ([2]; 72 hours, E/T 80:1, 25 mg/kg/day i.p., repeated experiment, C57B16 mice): 30.9 ± 0.1%; % lysis of tumor target ([2]; 72 hours, E/T 80:1, 100 mg/kg/day os, B6 D2 F1): 44.4 ± 0.3%; SRBC per phagocytizing cell ([3]; 100 mg/kg/day os): 3.23
COc1cc2c(cc1OC)CC(NCC(O)c1ccc(C)cc1)CC2 (stereo not shown) [ST 563, 2-[(N-2-hydroxy-2-(4-methylphenyl)ethyl)amino]-6,7-dimethoxytetraline] | 25.0 ± 4.9% | 35.0 ± 1.6% | 47.3 ± 0.6% | 55.7 ± 1.4% | 62.8 ± 3.1% | 9.1 ± 0.2% | 7.7 ± 0.6% | 15.4 ± 0.2% | 9.4 ± 0.7% | 16.0 ± 1.0% | 11.0 ± 0.1% | 12.7 ± 0.5% | 18.3 ± 0.1% | 14.9 ± 0.9% | 22.2 ± 1.4% | 42.5% | 146.0 | 3.40 | 58.5% | 164.0 | SRBC per phagocytizing cell ([3]; 100 mg/kg/day os): 2.80
